# Measurements taken from PMC6516043, “Functional Analysis of the Chemosensory Protein GmolCSP8 From the Oriental Fruit Moth, Grapholita molesta (Busck) (Lepidoptera: Tortricidae)” (Frontiers in Physiology, 2019).
# How the values were obtained:
# Assay type in all cases: binding
# GmolCSP8-L30A = GmolCSP8-L30A (Grapholita molesta, UniProt A0A0M4FML8, L45A); test: Titration of protein with fluorescent probe 1-NPN, mutant L30A
# Method: (§1) To determine whether GmolCSP8 is involved in odorant binding, fluorescence competitive binding assays were performed ([Zhong et al., 2012]). The fluorescence spectra were recorded using a fluorescence spectrophotometer (F-4500, Hitachi, Tokyo, Japan) in a 1 cm light path fluorimeter quartz cuvette with 10 nm slits for excitation and 20 nm slits for emission. The selected chemicals are listed in Table 2, and included four sex pheromone components and 34 volatiles from different host plants (peach and pear trees) of G. molesta based on previous investigations ([Natale et al., 2004]; [Lu et al., 2012]; [Najar-Rodriguez et al., 2013b]). […] The fluorescent probe was excited at 337 nm and emission spectra were recorded from 370 to 550 nm. […] Dissociation constants (Kd) of protein to 1-NPN were calculated by non-linear regression, using GraphPad Prism 4.00 software (GraphPad Software Inc.). The inhibition constants (Ki) of the competitors were determined using the corresponding IC50 values (concentration of competitor that reduced the initial fluorescence intensity by half) based on the following equation: Ki = [IC50]/(1+[1-NPN]/K1-NPN), where [1-NPN] is the free concentration of 1-NPN and K1-NPN is the dissociation constant of the complex GmolCSP8/1-NPN. […]
# rGmolCSP8 = rGmolCSP8 (Grapholita molesta, UniProt A0A0M4FML8); test: Titration of protein with fluorescent probe 1-NPN, wild-type; settings: wild-type rGmolCSP8, 2 μM protein, pH 7.4; read-out: Kd (dissociation constant) of 1-NPN
# Method: To determine whether GmolCSP8 is involved in odorant binding, fluorescence competitive binding assays were performed ([Zhong et al., 2012]). The fluorescence spectra were recorded using a fluorescence spectrophotometer (F-4500, Hitachi, Tokyo, Japan) in a 1 cm light path fluorimeter quartz cuvette with 10 nm slits for excitation and 20 nm slits for emission. The selected chemicals are listed in Table 2, and included four sex pheromone components and 34 volatiles from different host plants (peach and pear trees) of G. molesta based on previous investigations ([Natale et al., 2004]; [Lu et al., 2012]; [Najar-Rodriguez et al., 2013b]). […] The fluorescent probe was excited at 337 nm and emission spectra were recorded from 370 to 550 nm. […] Dissociation constants (Kd) of protein to 1-NPN were calculated by non-linear regression, using GraphPad Prism 4.00 software (GraphPad Software Inc.). The inhibition constants (Ki) of the competitors were determined using the corresponding IC50 values (concentration of competitor that reduced the initial fluorescence intensity by half) based on the following equation: Ki = [IC50]/(1+[1-NPN]/K1-NPN), where [1-NPN] is the free concentration of 1-NPN and K1-NPN is the dissociation constant of the complex GmolCSP8/1-NPN.
# FIGURE 5 Binding curve and relative Scatchard plot of 1-NPN to rGmolCSP8. […] The calculated dissociation constant of rGmolCSP8 was 13.85 μM. […]
# GmolCSP8-T27A = GmolCSP8-T27A (Grapholita molesta, UniProt A0A0M4FML8, T42A); test: Titration of protein with fluorescent probe 1-NPN, mutant T27A
# Method: as §1
# GmolCSP8-L80A = GmolCSP8-L80A (Grapholita molesta, UniProt A0A0M4FML8, L95A); test: Titration of protein with fluorescent probe 1-NPN, mutant L80A
# Method: as §1
# GmolCSP8-V40A = GmolCSP8-V40A (Grapholita molesta, UniProt A0A0M4FML8, V55A); test: Titration of protein with fluorescent probe 1-NPN, mutant V40A
# Method: as §1
# Chain of GmolCSP8-L30A (A0A0M4FML8 entry or part of it L45A): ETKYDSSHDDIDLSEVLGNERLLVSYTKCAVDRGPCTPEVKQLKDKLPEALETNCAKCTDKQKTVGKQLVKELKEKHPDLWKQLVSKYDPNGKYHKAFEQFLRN
# Chain of GmolCSP8-T27A (A0A0M4FML8 entry or part of it T42A): as the sequence (A0A0M4FML8 entry or part of it L45A) above, with T27A, A30L counted along it
# Chain of GmolCSP8-L80A (A0A0M4FML8 entry or part of it L95A): as the sequence (A0A0M4FML8 entry or part of it L45A) above, with A30L, L80A counted along it
# Chain of GmolCSP8-V40A (A0A0M4FML8 entry or part of it V55A): as the sequence (A0A0M4FML8 entry or part of it L45A) above, with A30L, V40A counted along it
# Chain of rGmolCSP8 (A0A0M4FML8 entry or part of it): as the sequence (A0A0M4FML8 entry or part of it L45A) above, with A30L counted along it
smiles,measurement,setting,value
"c1ccc(Nc2cccc3ccccc23)cc1 [1-NPN, N-phenyl-1-naphthylamine]",Kd,GmolCSP8-L30A,14.4 µM
same,Kd,rGmolCSP8,13.8 µM
same,Kd,GmolCSP8-T27A,11.2 µM
same,Kd,GmolCSP8-L80A,11.7 µM
same,Kd,GmolCSP8-V40A,11.8 µM
